Here are results for seven compounds from patent US11242331B2 (University of Florida Research Foundation, Incorporated, priority 2016, dated 2022).

Test [1] concerns endogenous Nrf2 target gene, NQO1. The test can be described thus: RT-qPCR validation of ARE inhibition in MDA-MB-231-ARE-Luc cells. Type of test: cell-based, human. Particulars: 24 h, relative to 0.5% DMSO. How it is done:
(§1) The library compounds were then assessed for the potential to modulate the activity of another key transcription factor, NF-E2-related factor 2 (Nrf2), which acts on the antioxidant response element (ARE) in the promoter region upstream of antioxidant and phase II detoxification enzymes. Activators of the Nrf2-ARE pathway have potential as cancer preventive agents because of their ability to increase antioxidant status of the cell and protect from oxidative damage that could lead to cancer. Inhibitors in turn may increase the susceptibility of cancer cells to chemotherapeutic agents and overcome drug resistance since Nrf2 is commonly activated in cancer.^44 To screen for Nrf2 inhibitors, MDA-MB-231 breast cancer cells (a model for invasive, triple negative breast cancer) stably transfected with the ARE-luciferase reporter were used, where the promoter region is derived from the human NQO1 gene.^45 As a control, cell viability was monitored to ensure the identification of false positives in the reporter gene assay that are a result of concomitant reduced cell viability.
The antioxidant response element (ARE) expression induction assay with LNCaP cells was performed as previously described.^6 The ARE expression inhibition assay was performed with MDA-MB-231-ARE-Luc cells that stably express the ARE reporter construct.7 MDA-MB-231-ARE-Luc cells were seeded in 96 well plates at 1.5×10^4 cells/well in DMEM medium (GIBCO) containing 10% FCS and 1% antibiotic-antimycotic (GIBCO), and allowed to attach overnight. Test compounds were screened in triplicate at three concentrations (100, 10 and 1 μM) and ARE expression was quantified on the EnVision plate reader (Perkin-Elmer) using the BriteLite plus luciferase reporter assay system (Perkin-Elmer) after 24 h exposure in a humidified incubator at 37° C. with 5% CO2. […]
In order to validate the ARE modulatory effects of compounds from the primary screen, the expression of the target Nrf2 target gene, Ngo1, was quantified by RT-qPCR. […]

Another test deals with Staphylococcus aureus. The test is described as follows: Bacterial growth inhibition assay, S. aureus. The settings on record: 16-18 h, OD600. It counts as cell-based. The method, then: (§2) Each biological screen was performed in three independent experiments at concentrations of 1, 10, 100 or 200 μM. All hit compounds identified in primary screens were then evaluated in follow-up assays to validate/confirm the initial screening results.
Bacterial growth inhibition was determined by screening all yohimbine-derived compounds at 200 μM in 96-well plates. Briefly, 2 μL of a 20 mM DMSO stock solution (test compound) was added to 98 μL of media (tryptic soy broth with 0.5% glucose for S. aureus; LB for A. baumannii) before each well was treated with an additional 100 μL of inoculated media (giving ˜10^5 colony forming units per milliliter) prepared from a fresh log-phase culture (OD600 of 0.8 to 1.0). The inoculated 96-well plates were then covered and placed in a humidifying chamber and allowed to incubate at 37° C. for 16-18 hours. Bacterial growth was then determined using a spectrophotometer plate reader (OD600) to quantify turbidity (growth) in each treated and untreated well of the 96-well plates. Turbidity for treated wells were compared to a 1% v/v DMSO vehicle and recorded in the screening heat map. All compounds were tested in three independent experiments.

For test [2], the system named is NO production in RAW264.7 cells. The test can be described thus: Nitric oxide assay (Griess reagent). Type of test: cell-based, mouse. The settings on record: RAW264.7 macrophage cells, LPS, 24 h. How it is done:
as §2
(§3) Mouse macrophage, RAW264.7 cells were cultured in Dulbecco's Modified Eagle Medium (DMEM) supplemented with 10% fetal bovine serum and maintained in 5% C02 at 37° C. Cells were seeded in 96-well plates (20,000 cells/well) and after 24 h pretreated for 1 hour with different concentrations of test compounds in triplicate or solvent control (0.5% DMSO) before adding LPS (1 μg/mL in PBS). Nitric oxide (NO) production in culture supernatant was assessed after 24 h following treatment by measuring nitrite concentration, an oxidative product of NO. Nitrite production was measured by mixing […] of culture supernatant with […] of Griess reagent (Promega), absorbance measured at 540 nm and NO % calculated against a calibration curve generated for fresh sodium nitrite standard. Cells were used for measuring viability (24 h) as above.

Another test concerns RAW264.7 cells. The test is described as follows: RAW264.7 cell viability (MTT). It counts as cell-based, mouse. Particulars: 24 h. The method, then:
Human colorectal cancer cell lines HCT116, HCT116^HIF-1α−/−HIF-2α−/−, and HCT 116^WT KRAS were cultured in Dulbecco's Modified Eagle Medium (DMEM) supplemented with 10% fetal bovine serum and maintained in 5% CO2 at 37° C. The cells were seeded in a 96-well plate (10,000 cells/well) and treated with different concentrations of test compounds or solvent control (0.5% DMSO) after 24 h. Cell viability was measured 48 h following treatment with MTT dye using the manufacturer's protocol (Promega).
as §3

The subject of test [3] is parental HCT116 and HCT116 HIF-1α−/−HIF-2α−/− cells. The test can be described thus: Cell viability assay in isogenic HCT116 lines (HIF-dependent anticancer activity). It counts as cell-based, human. Particulars: parental HCT116 vs HCT116 HIF-1α/HIF-2α double knockout, 48 h, MTT.
Description: The screen aimed to identify selective antiproliferative agents that preferentially act on cancer cells with functional hypoxia-inducible factors (HIF) pathways. […] Isogenic HCT116 colorectal cancer cell lines were employed, including parental HCT116 and HCT116 double knockout cells lacking HIF-1α and HIF-2α,^36,37 and the library was screened for differential antiproliferative activity.
A further test deals with endogenous NQO1. The test is described as follows: RT-qPCR validation of ARE activation in LNCaP cells. Type of test: cell-based, human. The settings on record: for levels of endogenous NQO1 (ARE activation): 24 h, RT-qPCR, relative to 0.5% DMSO; for potency compared with positive control sulforaphane: NQO1 RT-qPCR, sulforaphane 10 μM. The method, then:
(§4) As a control, LNCaP viability was monitored in parallel (FIG. 11E).
(§5) The antioxidant response element (ARE) expression induction assay with LNCaP cells was performed as previously described.^6 The ARE expression inhibition assay was performed with MDA-MB-231-ARE-Luc cells that stably express the ARE reporter construct.7 MDA-MB-231-ARE-Luc cells were seeded in 96 well plates at 1.5×10^4 cells/well in DMEM medium (GIBCO) containing 10% FCS and 1% antibiotic-antimycotic (GIBCO), and allowed to attach overnight. Test compounds were screened in triplicate at three concentrations (100, 10 and 1 μM) and ARE expression was quantified on the EnVision plate reader (Perkin-Elmer) using the BriteLite plus luciferase reporter assay system (Perkin-Elmer) after 24 h exposure in a humidified incubator at 37° C. with 5% CO2. In both cell line assays the luciferase expression for compound-treated wells was expressed relative the 0.5% DMSO carrier solvent control. A parallel viability assay was performed with the Cell Titer 96 Non-radioactive Cell Proliferation Assay (Promega) and the data expressed in the same manner as above. Compounds that inhibited ARE expression 20% more than viability, or induced ARE expression more than three-fold were re-tested in a seven-point, two-fold serial dilution dose-response assay (100-1.56 μM).
In order to validate the ARE modulatory effects of compounds from the primary screen, the expression of the target Nrf2 target gene, Ngo1, was quantified by RT-qPCR. LNCaP and MDA-MB-231-ARE-Luc cells were seeded in 6 well plates at 5×10^5 and 7×10^5 cells per well, in EMEM and DMEM media containing 10% FCS and 1% antibiotic-antimycotic (GIBCO) respectively. Cells were allowed to attach overnight before the addition of test compounds. After 24 h exposure in a humidified incubator at 37° C. with 5% CO2, RNA was isolated using the RNeasy kit (Qiagen) and quantified using a NanoDrop spectrophotometer (Thermo Fisher Scientific). cDNA was synthesized from 2 μg of RNA using Oligo(dT)12-18 (Life Technologies) primer and SuperScript II (Thermo Fisher Scientific) on the Mastercycler Gradient PCR machine (Eppendorf) for 1 h at 42° C. following a 10 min denaturation at 65° C. Gene expression was quantified on the 7300 Real Time PCR machine (Applied Biosystems) using TaqMan Gene Expression Master Mix (Thermo Fisher Scientific) and probes for the target gene Nqo1 (Hs02512143_s1, Thermo Fisher Scientific) and reference gene ActB (Hs99999903_m1, Thermo Fisher Scientific). Real time PCR was performed with the following thermal cycle: 1. 50° C. for 2 min; 2. 95° C. for 10 min; 3. 40 cycles of 95° C. for 15 sec followed by 60° C. for 1 min.

Test [4] deals with Nrf2-ARE pathway (ARE-luciferase reporter). The test can be described thus: ARE luciferase assay in MDA-MB-231-ARE-Luc cells (inhibition). Type of test: cell-based, human. Particulars: 24 h, screened at 100, 10 and 1 μM. The method, then: as §2
as §1, with “viability. […]” for “viability.”

For test [5] the test system is unchanged. The test can be described thus: ARE luciferase assay in LNCaP cells (activation). It counts as cell-based, human. The settings on record: 24 h, screened at 100, 10 and 1 μM. The method, then: as §2, §4
as §5, with “Compounds that inhibited ARE expression 20% more than viability, or induced ARE expression more than three-fold were re-tested in a seven-point, two-fold serial dilution dose-response assay (100-1.56 μM).” left out

For the compound `COC(=O)[C@@H]1[C@H]2C[C@H](OCc3ccc(Br)cc3)c3[nH]c4ccccc4c3CCN(C#N)C[C@@H]2CC[C@@H]1O` [Y6q], the “transcription of endogenous NQO1” value in test [1] is on record as “downregulated NQO1 transcription”. The inhibition at 200 µM in the test with Staphylococcus aureus is roughly 20%.

As for `COC(=O)[C@@H]1[C@H]2C[C@@H]3N(CC[C@@]34C(=O)N(Cc3cccc(OC)c3)c3ccccc34)C[C@@H]2CC[C@@H]1OCc1cccc(OC)c1` [Y7g], the “inhibition of nitric oxide (NO) production” value in test [2] is on record as “most selective anti-inflammatory activity”. For the same compound, the cell viability entry in the test with RAW264.7 cells is “almost unaffected”. Further, the “differential (HIF-dependent) antiproliferative activity” value in test [3] is given as “most selective antiproliferative agent”.

Turning to `COC(=O)[C@@H]1[C@H]2C[C@@H]3N(CC[C@@]34C(=O)N(c3ccc(Oc5ccccc5)cc3)c3ccccc34)C[C@@H]2CC[C@@H]1O` [Y3e], the “transcription of endogenous NQO1” value in test [1] was “downregulated NQO1 transcription”.

In the case of `OC[C@@H]1[C@H]2C[C@@H]3OCc4ccccc4-n4c3c(c3ccccc34)CCNC[C@@H]2CC[C@@H]1O` [Y5b], in the test with endogenous NQO1, the “levels of endogenous NQO1 (ARE activation)” value is reported as “active at lower concentrations” and the “potency compared with positive control sulforaphane” value is on record as “only slightly less potent than the positive control”.

Take `COC(=O)[C@@H]1[C@H]2C[C@H]3c4[nH]c5ccccc5c4CCN3C[C@@H]2CC[C@@H]1O` [yohimbine 1, yohimbine]: in test [4], the “ARE inhibition (luciferase reporter)” value is recorded as “does not possess any of these activities”. The “inhibition of nitric oxide (NO) production” value in test [2] is recorded as “does not possess any of these activities”. Further, the “ARE activation (luciferase reporter)” value in test [5] was “does not possess any of these activities”.

Regarding `CC(=O)N1CCc2c([nH]c3ccccc23)[C@H](OCc2ccccc2)C[C@H]2[C@@H](CC[C@H](O)[C@@H]2CO)C1` [Y6u], in the test with endogenous NQO1, the “levels of endogenous NQO1 (ARE activation)” value is listed as “active at lower concentrations” and the “potency compared with positive control sulforaphane” value is recorded as “only slightly less potent than the positive control”.

Consider `COC(=O)[C@@H]1[C@H]2C[C@@H](c3[nH]c4ccccc4c3CCn3cc(-c4cccc(Cl)c4)nn3)N(C#N)C[C@@H]2CC[C@@H]1O` [Y1f], for which the “transcription of endogenous NQO1” value in test [1] is reported as “downregulated NQO1 transcription”. In the test on Staphylococcus aureus, this compound had an inhibition at 200 µM of roughly 20%.
